Drawing on PubChem BioAssay (NCI), this text covers TGI and GI50 for 9 compounds.

“And” between values parts separate entries of the source, which are not always exact repeats. Equal entries are not always repeated.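 Protocol summary: plate cells (96-well), add compound at 5 concentrations, incubate 48 h, interpolate endpoints linearly. GI50 = concentration required for 50% inhibition of growth. At the TGI there is no net growth.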 Bounds are passed on as bounds.

Assay in all cases: NCI anticancer screen, dose series, 48 h
The test system of test [1] is LOX IMVI melanoma.
Test [2] deals with BT-549 breast.
For test [3], the system named is COLO 205 colon.
Test [4] relates to 786-0 renal.
Test [5] concerns NCI-H226 lung.
The test system of test [6] is A549 NSCLC.
Test [7] has as its system IGROV1 ovarian.
The test system of test [8] is SF-295 CNS.
The test system of test [9] is MDA-MB-231 breast.
Test [10] concerns EKVX NSCLC.
The test system of test [11] is T-47D breast.
In test [12] the test system is OVCAR-4 ovarian.
Test [13] relates to SF-539 CNS.
The subject of test [14] is NCI/ADR-RES ovarian.
The test system of test [15] is RPMI-8226 leukemia.

For `COc1ccc(NC(C)=O)c(C(=O)CCNC(C)=O)c1`, the TGI in test [1], in test [2], in test [3], in test [4], in test [5] and in [6] was more than 100 µM throughout. In addition, the TGI in [7], in test [8], in test [9], in [10], in test [11] and in [12] was more than 100 µM each time. Besides, the TGI in test [13], in test [14] and in [15] was more than 100 µM each time.

For `CCC(/C=C/c1ccccc1)=N\NC(=S)N/N=C(/C=C/c1ccccc1)CC`, the TGI in test [1], in test [2], in [3], in [4], in test [5] and in [6] was more than 100 µM in each case. For the same compound, the TGI in test [7], in test [8], in test [9], in test [10], in test [11] and in test [12] was more than 100 µM in each case. For the same compound, the values for the TGI in test [13], in test [14] and in [15] were 91.6 µM, more than 100 µM and more than 100 µM, respectively.

`O=[N+]([O-])c1cccc2nc3ccccc3c(NCCNCCO)c12`: the TGI was 0.0184 µM and 0.112 µM in test [1]; 0.0273 µM and 0.0259 µM in test [2]; 0.0106 µM and 0.0213 µM in test [3]; 0.0259 µM and 0.121 µM in test [4]; 0.0495 µM and 0.0261 µM in [5]; 0.145 µM and 0.144 µM in test [6]. Also, the TGI was 0.0233 µM and 0.0569 µM in test [7]; 0.0367 µM and 0.133 µM in [8]; 0.0668 µM and 0.0816 µM in test [9]; 0.286 µM and 0.181 µM in test [10]; 0.101 µM and 0.0533 µM in test [11]; 0.0162 µM in test [12]. Further, the TGI in test [13] was 0.136 µM and 0.0384 µM; in test [14] it was 2.15 µM and 14.9 µM; in [15] it was 0.0602 µM and 0.0646 µM. The values for the GI50 in test [10], in [13] and in test [14] were 0.0306 µM, 0.0116 µM and 0.911 µM, respectively.

For the compound `NNC(=O)CCCCCCCC(=O)O`, the TGI in test [1], in test [2], in test [3], in test [4], in [5] and in [6] was more than 100 µM throughout. Moreover, the TGI in test [7], in test [8], in test [9], in [10], in [11] and in test [12] was more than 100 µM in each case. Further, the TGI in test [13], in test [14] and in test [15] was more than 100 µM in each case.

Regarding `O=C1NC(N/N=C/C(O)C(O)C(O)C(O)CO)=N/C1=C\c1cccs1` (stereo not drawn), the TGI in [1], in test [2], in test [3], in test [4], in test [5] and in [6] was more than 100 µM in each case. Further, the TGI in test [7], in test [8], in test [9], in test [10], in test [11] and in test [12] was more than 100 µM each time. In addition, the TGI in [13], in [14] and in test [15] was more than 100 µM in each case.

`COC(=O)c1ccc(NCC2=CC(=O)c3ccccc3C2=O)cc1`: the TGI is 23.3 µM in test [1]; 42.2 µM in [2]; 31.6 µM in [3]; 43.2 µM in test [4]; 39.2 µM in [5]; 96.7 µM in [6]. The TGI in [7] was found to be 30.2 µM; in test [8] it was 35.1 µM; in [9] it was 10.3 µM; in test [10], 66.5 µM; in [11], 32.5 µM; in test [12], 29.1 µM. Further, the TGI in test [13] is 63.6 µM; in test [14] it was 90.6 µM; in [15], more than 26.5 µM.

Take `O=[N+]([O-])/C(C(Cl)=C(Cl)Cl)=C(/Sc1ccccc1)N1CCOCC1`: the TGI was 3.04 µM in test [1]; 15 µM in [2]; 11 µM in test [3]; 4.51 µM in [4]; 26.5 µM in test [5]; 41.7 µM in test [6]. Also, the TGI in test [7] is 11.1 µM; in [8], 36.4 µM; in test [9], 19.8 µM; in test [10], 25.7 µM; in test [11], 16 µM; in [12] it was 28.4 µM. The TGI in test [13] was found to be 25.5 µM; in test [14], 38.4 µM; in test [15], 5.73 µM.

On to `CCOC(=O)CC[C@@H](NC(=O)c1ccc(NCc2ccc3nc(OC)c(OC)nc3c2)cc1)C(=O)OCC`, for which the TGI is more than 100 µM in [1]; more than 100 µM in test [2]; 69.4 µM in test [3]; more than 100 µM in test [4]; more than 100 µM in test [5]; more than 100 µM in [6]. Also, the TGI was 56.7 µM in test [7]; more than 100 µM in test [8]; more than 100 µM in test [9]; more than 100 µM in test [10]; 58.3 µM in test [11]; more than 100 µM in test [12]. Besides, the TGI was 45.8 µM in [13], more than 100 µM in test [14] and more than 100 µM in test [15].

As to `C=CC1(CBr)CCC(C(C)(C)Br)O1` (stereo not drawn), the TGI in test [1] is 4.34 µM; in test [2], 30.4 µM; in test [3], 20.6 µM; in [4] it was 6.56 µM; in test [5], 46.7 µM; in [6] it was 33.9 µM. For the same compound, the TGI in [7] was found to be 22.7 µM; in test [8], 24.8 µM; in [9], 28.3 µM; in test [10] it was 32.1 µM; in test [11], 15.5 µM; in test [12] it was 28 µM. Moreover, the results for the TGI in [13], in test [14] and in [15] were 30.8 µM, 30.7 µM and 6.11 µM, respectively.
